Common to all, as to type: cell-based
The subject of assay [1] is C14-1b. Nature of the assay: Northern analysis of mRNA accumulation in cultured tobacco cells. As to conditions: 0.1 and 1 mM, approximately 2.5 h. The protocol:
(§1) FIG. 2. Time course of SA-induced gene expression. Northern analysis of representative differential display genes following treatment of cultured tobacco cells with SA for the indicated time (in hours, except lanes 2-4, which refer to 10, 20, and 30 min.). Twenty micrograms of total RNA was loaded per lane. Blots were hybridized with ddPCR fragments indicated at right or with the β-ATPase gene as a loading control probe. Autoradiogram exposure times were optimized for each gene. The signal for C18-1 was enhanced by using the full length cDNA as probe. Labels on left indicate response class.
(§2) FIG. 4. Specificity of induction among SA analogs and other signalling compounds. Northern analysis of representative differential display genes following treatment of tobacco cells with 100 μM or 1 mM (left and right side of triangles, respectively) of the following chemicals for 2-2.5 hr: salicylic acid (SA, lanes 4 and 5), acetylSA (ASA, lanes 6 and 7), benzoic acid (BA, lanes 8 and 9), 4-hydroxybenzoic (4HBA, lanes 10 and 11), thiamine (thia, lanes 12 and 13), methyljasmonate (MJ, lanes 14 and 15), abscisic acid (ABA, lanes 16 and 17), or 2,4-dichlorophenoxyacetic acid (2,4-D, lanes 18 and 19). Control treatments are H2O (H, lane 1), 1% ethanol (E, solvent concentration in MJ treatments, lane 2), or 1% DMSO (D, solvent concentration in 2,4D treatments, lane 3). Blots were hybridized with ddPCR fragments indicated at right or with the β-ATPase geneas a loading control probe. Autoradiogram exposure times were optimized for each gene. The signal for C18-1 was enhanced by using the full length cDNA as probe. Labels on left indicate response class.
(§3) Differential display technology (Liang, P. and Pardee, A. B., Science 257: 967-971, 1992) was used to identify genes activated in the presence of SA, CHX and both. Therefore the absence or presence of SA, induction at 3 timepoints of SA-treatment, 2 different concentrations of SA and the effect of addition of CHX were measured. Seven treatments in total were performed. Treatment of tobacco BY-2 suspension cells and leaves and differential display PCR reactions were performed as described (Horvath and Chua (1996), Plant Mol. Biol. 31, 1061-1072).
(§4) The specificity for induction by SA was tested by treating tobacco cells with a range of SA analogs and plant signalling compounds at 0.1 and 1 mM for approximately 2.5 h. […] Among the SA-analogs, acetyl-SA (ASA, aspirin), benzoic acid (BA) and 4-hydroxybenzoic acid (4HBA), responses generally reflected the ability of the analog to substitute for SA in other cellular responses (Yalpani, N. et al., Plant Cell 3: 809-818, 1991, Yang, Y. and Klessig, D. F., Proc. Natl. Acad. Sci. 93, 14972-14977, 1996). […] Several genes, including those for proteinase inhibitors and lipoxygenase (Hildmann, T. et al., Plant Cell 4: 1157-1170, 1992; Melan, M. A. et al., Plant Physiol. 101: 441-450, 1993; Xu, D. et al., Plant Mol. Biol. 22: 573-588, 1993) are known to be under dual regulation by MJ and ABA. A similar mode of regulation may be in effect with C14-1b. the auxin 2,4-D induced several genes including C18-1/EREBP1 and C6-2.

Assay [2] deals with C18-1/EREBP1. Described as above. Particulars: 0.1 and 1 mM, approximately 2.5 h. Here is the method: (§5) FIG. 2. Time course of SA-induced gene expression. Northern analysis of representative differential display genes following treatment of cultured tobacco cells with SA for the indicated time (in hours, except lanes 2-4, which refer to 10, 20, and 30 min.). Twenty micrograms of total RNA was loaded per lane. Blots were hybridized with ddPCR fragments indicated at right or with the β-ATPase gene as a loading control probe. Autoradiogram exposure times were optimized for each gene. […] Labels on left indicate response class.
as §2, with “The signal for C18-1 was enhanced by using the full length cDNA as probe.” left out
(§6) FIG. 5. Dose response of C18-1 and G8-1 to a range of chemicals. Northern analysis of tobacco cell cultures with eight concentrations of SA, ASA, BA, 4HBA, Thia, MJ, ABA, 2,4-D, or H2O for 2-2.5 hr. Concentrations were 0.1, 1, 3, 10, 30, 100, 300 μM or […], as indicated.
(§7) FIG. 6. […] Graphic representation of mRNA accumulation of G8-1 ( ), C18se -1 (♦), and IEGT (o) in response to a 2-2.5 hr incubation of cultured tobacco cells with a range of SA concentrations. RNA gel blots were quantitated by phosphorimaging analysis and normalized relative to the β-ATPase gene loading control (not shown).
as §3
The kinetics of induction were examined in detail through time course experiments for representative clones of each class (FIG. 2).
(§8) The specificity for induction by SA was tested by treating tobacco cells with a range of SA analogs and plant signalling compounds at 0.1 and 1 mM for approximately 2.5 h. […] Several genes, including those for proteinase inhibitors and lipoxygenase (Hildmann, T. et al., Plant Cell 4: 1157-1170, 1992; Melan, M. A. et al., Plant Physiol. 101: 441-450, 1993; Xu, D. et al., Plant Mol. Biol. 22: 573-588, 1993) are known to be under dual regulation by MJ and ABA.
A dose-response curve was made for SA. Therefore tobacco cells were treated with SA in a range of concentrations from 0.1 μM to 2 mM.

Assay [3] deals with G8-1. Described as above. Particulars: for G8-1 induction at 0.1 mM versus 1 mM: 0.1 and 1 mM, approximately 2.5 h. The protocol: (§9) FIG. 1. […] Northern analysis of genes identified by differential display. Gel-purified DNA fragments produced by ddPCR were either used directly for random-primed labeling and probing of Northern filters (e.g. C7-1, C6-1, and G9-2) or first subcloned and released by restriction digest. Each lane contains 1 μg of poly(A) mRNA from cultured tobacco cells treated with (1) H2O, 4 hr; (2) 200 μM SA, 4 hr; (3) 71 μM CHX, 5 hr; (4) 71 μM CHX, 5 hr plus 200 μM SA after 1 hr (4 hr total); (5) 20 μM SA, 2 hr; (7) 200 μM SA, 8 hr.
as §5
as §2, with “The signal for C18-1 was enhanced by using the full length cDNA as probe.” left out
as §6, §7, §3
The specificity for induction by SA was tested by treating tobacco cells with a range of SA analogs and plant signalling compounds at 0.1 and 1 mM for approximately 2.5 h.

The subject of assay [4] is C6-2. Described as above. As to conditions: 0.1 and 1 mM, approximately 2.5 h. The protocol:
as §1, §2, §3, §4

The test system of assay [5] is G3-2. The assay is described as above. As to conditions: 0.1 and 1 mM, approximately 2.5 h. Here is the method:
(§10) FIG. 1. Four classes of SA-induced early genes. Northern analysis of genes identified by differential display. Gel-purified DNA fragments produced by ddPCR were either used directly for random-primed labeling and probing of Northern filters (e.g. C7-1, C6-1, and G9-2) or first subcloned and released by restriction digest. Each lane contains 1 μg of poly(A) mRNA from cultured tobacco cells treated with (1) H2O, 4 hr; (2) 200 μM SA, 4 hr; (3) 71 μM CHX, 5 hr; (4) 71 μM CHX, 5 hr plus 200 μM SA after 1 hr (4 hr total); (5) 20 μM SA, 2 hr; (7) 200 μM SA, 8 hr. One blot was sequentially hybridized with the G1-1 fragment and the β-ATPase gene as a loading control probe. response classes (I-IV) are indicated on the left of the autoradiograms.
as §1, §2, §3, §4

For assay [6], the system named is early SA-induced genes identified by differential display. Description: Northern analysis of differential display genes in cultured tobacco cells. As to conditions: 0.1 and 1 mM, approximately 2.5 h. Here is the method:
as §9
as §2, with “The signal for C18-1 was enhanced by using the full length cDNA as probe.” left out
as §3, §8

Assay [7] relates to Class I genes. Description: Northern analysis of poly(A) mRNA from treated tobacco cells. Particulars: SA at 2, 4 or 8 h; 71 μM CHX 5 hrs; CHX + 200 μM SA. The protocol:
as §10, §3
(§11) Fiftytwo were recovered for testing on poly(A)+Northern blots loaded with mRNA derived from cells from each of the treatments.

Assay [8] relates to class II genes. The assay is described as above. Particulars: SA at 2, 4, 8 h; 71 μM CHX 5 hrs; CHX + 200 μM SA. The protocol:
as §10, §3, §11

Assay [9] has as its system class IV genes (G3-2 and C14-1b). Described as above. Here is the method: as §10, §3, §11
[10] abbreviates: 71 μM CHX 5 hrs + 200 μM SA after 1 hr.
Where [11] appears, read: SA at 2, 4, 8 h, 71 μM CHX 5 hrs.

Regarding `CC1=CC(=O)CC(C)(C)[C@@]1(O)/C=C/C(C)=C\C(=O)O` [ABA, abscisic acid], the “induction of C14-1b” value in assay [1] is “could be induced”.
Take `O=C(O)c1ccccc1` [BA, benzoic acid]: the “C18-1/EREBP1 induction at 0.1 mM versus 1 mM” value in assay [2] is listed as “greater induction at 1mM”. Besides, the “G8-1 induction at 0.1 mM versus 1 mM” value in [3] was “equal or greater induction at 0.1 mM versus 1 mM”. The “C6-2 induction at 0.1 mM versus 1 mM” value in assay [4] is “greater induction at 1mM”. In assay [5], the “G3-2 induction at 0.1 mM versus 1 mM” value is “equal or greater induction at 0.1 mM versus 1 mM”. Further, the “induction of the genes tested” value in assay [6] is recorded as “also induced the expression”.
For the compound `Cc1ncc(C[n+]2csc(CCO)c2C)c(N)n1` [thiamine], the “induction of the genes tested” value in [6] is on record as “did not produce a response from any of the genes tested”.
Consider `C[C@@H]1C[C@@H]([C@H](O)CC2CC(=O)NC(=O)C2)C(=O)[C@@H](C)C1` [CHX, cycloheximide], for which the “effect of presence of CHX on induction of G8-1 by SA” value in [3] (setting [10]) is “did not significantly alter”. For the same compound, the “mRNA induction of G8-1 (class III)” value in assay [3] (setting [11]) is “did not induce”. Further, the “mRNA induction of Class I genes” value in assay [7] was “some induction”. In assay [8], the “mRNA induction of class II genes” value was “also induced expression”. The “effect of CHX on induction of class IV genes by SA” value in [9] (setting [10]) is reported as “blocked the induction”. Besides, the “mRNA induction of class IV genes” value in assay [9] (setting [11]) is “fail to induce”.
`CC/C=C\CC1C(=O)CCC1CC(=O)OC` (centres unmarked) [MJ, Methyljasmonate]: in [2], the “effectiveness as inducer of C18-1/EREBP1 among compounds tested” value is listed as “most effective inducer” and the “induction of C18-1/EREBP1” value is “able to induce expression”. For the same compound, in assay [1], the “effectiveness as inducer of C14-1b among compounds tested” value is “most effective inducer” and the “induction of C14-1b” value is listed as “able to induce expression”. The “induction of G3-2” value in [5] was “able to induce expression”.
Take `O=C(O)COc1ccc(Cl)cc1Cl` [2,4-D, 2,4-dichlorophenoxyacetic acid]: the “induction of C18-1/EREBP1” value in assay [2] is reported as “induced”. In addition, in [4], the “induction of C6-2” value is “induced”.
With `O=C(O)c1ccc(O)cc1` [4HBA, 4-hydroxybenzoic acid], the “induction of the genes tested” value in assay [6] is on record as “failed to induce all genes but C6-2”.
Regarding `CC(=O)Oc1ccccc1C(=O)O` [ASA, acetyl-SA], the “C18-1/EREBP1 induction at 0.1 mM versus 1 mM” value in assay [2] was “greater induction at 1mM”. Further, the “G8-1 induction at 0.1 mM versus 1 mM” value in assay [3] is “equal or greater induction at 0.1 mM versus 1 mM”. Besides, the “C6-2 induction at 0.1 mM versus 1 mM” value in assay [4] is listed as “greater induction at 1mM”. The “G3-2 induction at 0.1 mM versus 1 mM” value in assay [5] is “equal or greater induction at 0.1 mM versus 1 mM”. In addition, the “induction of the genes tested” value in assay [6] is on record as “induced all genes to similar levels as SA”.

For the origin of these results see patent US20020039780A1, “Salicyclic acid inducible genes and promoters” (priority 1998, published 2002).
